Experimental data from patent publication US20090061515A1, “Methods of inhibiting or suppressing cellular proliferation” (priority 2007, published 2009).

What follows are molecules tested on Human Coronary Artery Endothelial Cells (HCAEC) (assay: CyQuant cell number / proliferation, HCAEC (Example 7)). Conditions: 1 mg/ml, after 96 hours post agent treatment, not following 24 hours exposure only.
Format: cell-based
Procedure: Cells were exposed to the test compounds for 24 to 48 hours and then allowed to grow for 96 hours in regular media (without test compound). The final concentrations for cell treatment were as follows: compounds 13358-18-1, 13358-18-2, 13358-18-4, and 13358-18-6 were evaluated at 10 mg/ml, 1 mg/ml, 100 micrograms/ml, and 10 micrograms/ml. Compounds 13358-18-3 and 13358-18-5 were evaluated at 50 mg/ml, 10 mg/ml, 1 mg/ml, and 100 micrograms/ml.
Three assays were used to look at the proliferation, viability and cytotoxicity of the compounds on the cells. A non-radioactive cytotoxicity assay available under the trade designation CytoTox 96 from Promega Corporation (Madison, Wis.) is designed to determine the cytotoxicity of a substance by quantitatively measuring the presence of lactate dehydrogenase (LDH) in cell culture supernatant. LDH is released in cells that are undergoing cell death and the assay converts it to a red formazan product that can allows for the proportional amount of LDH absorbance to be read. A cell proliferation assay available under the trade designation CyQuant from Invitrogen Corporation (Carlsbad, Calif.) determines the density of cells in culture by eluding a green fluorescent dye which fluoresces when bound to cellular nucleic acids. The amount of nucleic acid present is proportional to the amount of living cells in culture, therefore an accurate cell count can be obtained. A luminescent cell viability assay available under the trade designation CellTiter-Glo from Promega Corporation (Madison, Wis.) uses the amount ATP present in the cell cytoplasm as an indicator for metabolic activity. The amount of ATP present is proportional to the measured amount of a luminescent signal. This assay was used to confirm if the cells are still viable after exposure to the test compounds.
`CC(=O)CCC(O)C(O)c1ccccc1` (stereo not drawn) [Compound 13358-18-1, 5,6-dihydroxy-6-phenyl-hexan-2-one] was tested, and the “cell number and viability” value was “some antiproliferative effect with viable cells”.
In the case of `O=C1CCCCC1CC(O)CO` (stereo not drawn) [Compound 13358-18-4, 2-(2′,3′-dihydroxypropyl)-cyclohexanone], the “cell number and viability” value is reported as “some antiproliferative effect with viable cells”.
With `CC(=O)OCC(O)CO` (stereo not drawn) [Compound 13358-18-5, 2,3-dihydroxy-propyl acetate] the “cell number and viability” value was “some antiproliferative effect with viable cells”.
